From patent publication US20160032327A1, “PROCESS FOR CULTURING DEINOCOCCUS BACTERIA” (DEINOVE, priority 2012, published 2016)
Read-outs that look alike come from different tables or passages of the source.

Experiments:
M36-7D_21 [1] = details: no growth after 24 or 96 h on agar plates at 45° C.
Method: (§1) Deinococcus geothermalis M36-7D—21 and MX61E—04 were cultivated in 20% starch effluent pH 5 containing 15 mM NH4Cl and 5.30 mM K2HPO4
(§2) 5 ml of the cultures were treated during one hour with different concentration of H2O2 (20, 50,100, 150 and 200 mM) at room temperature or at 45° C.
(§3) The control sample corresponds to untreated sample (0 mM H2O2).
(§4) The control and treated samples were then spread on agar plates containing 10% effluent starch and incubated during 24 and 96 hours at 45° C.
(§5) The inhibitory concentration (IC expressed in mM) is the hydrogen peroxide concentration from which there was no growth after 24 or 96 h.

MX6-1E_04 = details: no growth after 24 or 96 h on agar plates at 45° C.
Method: as §1, §2, §3, §4, §5

[2] = tested on: Deinococcus geothermalis M36-7D—21
Method: The growth of Deinococcus geothermalis M36-7D—21 was performed in microplates in CMG medium containing Peptone 2 g/L; Yeast Extract 5 g/L; Glucose 55 mM (10 g/L); MOPS acid 40 mM; NH4Cl 20 mM; NaOH 10 mM; KOH 10 mM; CaCl2.2H2O 0.5 μM; Na2SO4.10H2O 0.276 mM; MgCl2.6H2O 0.528 mM; (NH4)6(Mo7)O24.4H2O 3 nM; H3BO3 0.4 μM; CoCl2.6H2O 30 nM; CuSO4.5H2O 10 nM; MnCl2 0.25 μM; ZnSO4.7H2O 10 nM; D-Biotin 1 μg/L; Niacin (nicotinic acid) 1 μg/L; Pyridoxin (pyridoxal HCl ou vitamine B6) 1 μg/L; Thiamin HCl (vitamine B1); FeCl3 20 μM; Sodium Citrate.2H2O 20 μM; K2HPO4 5,7 mM.
The addition of 100 mM hydrogen peroxide was made at TO (begin of the growth) or at the exponential phase.
The growth was monitored by measuring the OD600 nm.

M36-7D_17 = tested on: M36-7D_17
Description: (§6) And the “Inhibitory Concentration of an oxidizer towards a Deinococcus or a related bacterium” (“ICD”) refers to the minimum concentration of said oxidizer in the culture medium that inhibits or reduces the growth of the Deinococcus. The IC may be easily ascertained for each microorganism or each strain thereof, and for each oxidizer, by implementing test cultures. For example, the strain of interest may be cultivated in several parallel cultures, each of said cultures containing an increased concentration of the oxidizer. After 2 or 3 days, the cultures are observed to measure the microbial growth and thereby to determine the IC.
(§7) Preculture was done for 3 days in CMG 1%. After checking the purity of the culture, cell pellet was washed three times in sterile water and then DO was adjusted to 2.
(§8) Hydrogen peroxide stock solution: H2O2 (30%wt solution, SIGMA ref. 216763, stored at 4° C.)
(§9) Preparation of the H2O2 range:
(§10) Dispense 180 μl of media into culture wells (200 μl into blank wells)
(§11) Add 20 μL of washed cell pellet at an optical density (600 nm) of 2 into well to be inoculated.
(§12) Gently add 50 μL of mineral oil on the well surface to limit evaporation.
(§13) Microplate was incubated for 3 days at 30 or 45° C. according to the optimal growth temperature indicated in the first part. Growth was monitored by an absorbance measure.

[3] = tested on: Deinococcus radiodurans R1
Description: as §6, §7, §8, §9, §10, §11, §12, §13

[4] = tested on: Saccharomyces cerevisiae 2640; details: S. cerevisiae, 30° C., CMG medium
Description: as §6, §7, §8, §9, §10, §11, §12, §13

Zymomonas mobilis DSM424 = details: Z. mobilis, 30° C., CMG medium
Description: as §6, §7, §8, §9, §10, §11, §12, §13

M36-7D_21 [5] = tested on: M36-7D_21
Description: as §6, §7, §8, §9, §10, §11, §12, §13

M36-7Dwt = tested on: M36-7Dwt
Description: as §6, §7, §8, §9, §10, §11, §12, §13

Escherichia coli K12 = details: E. coli, 30° C., CMG medium
Description: as §6, §7, §8, §9, §10, §11, §12, §13

[6] = one hour treatment at room temperature

OO [hydrogen peroxide]
Inhibitory concentration (mM) of hydrogen peroxide (M36-7D_21 [1]; one hour treatment at 45° C.): 200 mM | Inhibitory concentration (mM) of hydrogen peroxide (M36-7D_21 [1]; [6]): >200 mM | Inhibitory concentration (mM) of hydrogen peroxide (MX6-1E_04; one hour treatment at 45° C.): 50 mM | Inhibitory concentration (mM) of hydrogen peroxide (MX6-1E_04; [6]): 100 mM | Effect on growth of M36-7D—21 (OD600 nm) ([2]; 100 mM hydrogen peroxide added at TO (begin of the growth)): did not affect the growth | Effect on growth of M36-7D—21 (OD600 nm) ([2]; 100 mM hydrogen peroxide added at the exponential phase): did not affect the growth | IC: concentration of hydrogen peroxide from which there was no growth after 3 days of incubation (M36-7D_18; M36-7D_18, CMG medium, 3 days): 200 mM | Concentration of hydrogen peroxide in the presence of which the strain is able to grow (M36-7D_18; modified D. geothermalis M36-7D (M36-7D_18)): up to 190 mM | IC: concentration of hydrogen peroxide from which there was no growth after 3 days of incubation (M36-7D_17; M36-7D_17, CMG medium, 3 days): 200 mM | Concentration of hydrogen peroxide in the presence of which the strain is able to grow (M36-7D_17; modified D. geothermalis M36-7D (M36-7D_17)): up to 190 mM | Concentration of hydrogen peroxide in the presence of which the strain is able to grow ([3]; D. radiodurans R1): up to 190 mM | IC: concentration of hydrogen peroxide from which there was no growth after 3 days of incubation ([3]; D. radiodurans R1, 30° C., CMG medium, 3 days): 200 mM | IC: concentration of hydrogen peroxide from which there was no growth after 3 days of incubation [4]: 20 mM | IC: concentration of hydrogen peroxide from which there was no growth after 3 days of incubation (Zymomonas mobilis DSM424): 10 mM | IC: concentration of hydrogen peroxide from which there was no growth after 3 days of incubation (M36-7D_21 [5]; M36-7D_21, CMG medium, 3 days): 200 mM | Concentration of hydrogen peroxide in the presence of which the strain is able to grow (M36-7D_21 [5]; modified D. geothermalis M36-7D (M36-7D_21)): up to 190 mM | Concentration of hydrogen peroxide in the presence of which the strain is able to grow (M36-7Dwt; D. geothermalis M36-7Dwt): up to 190 mM | IC: concentration of hydrogen peroxide from which there was no growth after 3 days of incubation (M36-7Dwt; M36-7Dwt, 45° C., CMG medium, 3 days): 200 mM | IC: concentration of hydrogen peroxide from which there was no growth after 3 days of incubation (Escherichia coli K12): 10 mM
